In patent publication US7592336B2, “Hepatitis C virus inhibitors” (Bristol-Myers Squibb Company, priority 2005, dated 2009):
pEC50, pIC50: −log10 of the molar value.

Experiments:
[1] = target: T1, HCV NS3/4A protease complex, BMS strain (UniProt P27958, species not given/STRAIN_BMS); assay: FRET peptide assay to monitor HCV NS3/4A proteolytic activity (BMS strain); format: biochemical, HCV genotype 1a; conditions: NS3/4A BMS strain; read-out: Activity Range (IC50)
T1 construct: said of H77 and J4L6S, not expressly of BMS; fused on or other part: A three-lysine solubilising tail at the NS4A C-terminus and purification on Ni-NTA are described for the H77 and J4L6S constructs
T1 sequence (P27958 1027-1657, change not shown, one chain of several): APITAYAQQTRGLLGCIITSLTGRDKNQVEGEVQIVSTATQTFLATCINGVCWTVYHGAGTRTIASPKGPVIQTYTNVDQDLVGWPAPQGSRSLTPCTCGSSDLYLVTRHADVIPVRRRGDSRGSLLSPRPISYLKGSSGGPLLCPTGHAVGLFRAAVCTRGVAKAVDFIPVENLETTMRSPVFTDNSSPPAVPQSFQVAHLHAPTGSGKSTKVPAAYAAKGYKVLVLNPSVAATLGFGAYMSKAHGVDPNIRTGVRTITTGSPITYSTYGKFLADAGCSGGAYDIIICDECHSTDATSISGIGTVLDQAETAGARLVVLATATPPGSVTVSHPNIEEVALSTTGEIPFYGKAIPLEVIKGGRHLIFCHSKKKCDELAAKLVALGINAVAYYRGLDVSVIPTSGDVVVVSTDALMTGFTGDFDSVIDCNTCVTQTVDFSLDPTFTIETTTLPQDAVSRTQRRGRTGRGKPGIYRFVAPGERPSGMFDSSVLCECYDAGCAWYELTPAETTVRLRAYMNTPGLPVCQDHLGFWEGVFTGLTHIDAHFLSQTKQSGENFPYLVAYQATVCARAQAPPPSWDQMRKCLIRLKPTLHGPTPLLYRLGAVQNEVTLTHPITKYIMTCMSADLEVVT
Source text: HCV NS3 protease complexes, derived from the BMS strain, H77 strain or J4L6S strain, were generated, as described below. These purified recombinant proteins were generated for use in a homogeneous assay (see below) to provide an indication of how effective compounds of the present disclosure would be in inhibiting HCV NS3 proteolytic activity.
Serum from an HCV-infected patient was obtained from Dr. T. Wright, San Francisco Hospital. An engineered full-length cDNA (compliment deoxyribonucleic acid) template of the HCV genome (BMS strain) was constructed from DNA fragments obtained by reverse transcription-PCR (RT-PCR) of serum RNA (ribonucleic acid) and using primers selected on the basis of homology between other genotype 1a strains. From the determination of the entire genome sequence, a genotype 1a was assigned to the HCV isolate according to the classification of Simmonds et al. (See P Simmonds, K A Rose, S Graham, S W Chan, F McOmish, B C Dow, E A Follett, P L Yap and H Marsden, J. Clin. Microbiol., 31(6), 1493-1503 (1993)). […] The infectious clones, H77 (1a genotype) and J4L6S (1b genotype) were obtained from R. Purcell (NIH) and the sequences are published in Genbank (AAB67036, see Yanagi, M., Purcell, R. H., Emerson, S. U. and Bukh, J. Proc. Natl. Acad. Sci. U.S.A. 94(16), 8738-8743 (1997); AF054247, see Yanagi, M., St Claire, M., Shapiro, M., Emerson, S. U., Purcell, R. H. and Bukh, J, Virology 244 (1), 161-172. (1998)).
NS3/4A protease complex-containing fractions were pooled and loaded on a desalting column Superdex-S200 pre-equilibrated with buffer D (25 mM HEPES, pH 7.5, 20% glycerol, 300 mM NaCl, 0.2% Triton X-100, 10 mM βME). Sample was loaded at a flow rate of 1 mL/min. NS3/4A protease complex-containing fractions were pooled and concentrated to approximately 0.5 mg/ml. The purity of the NS3/4A protease complexes, derived from the BMS, H77 and J4L6S strains, were judged to be greater than 90% by SDS-PAGE and mass spectrometry analyses. The enzyme was stored at −80° C., thawed on ice and diluted prior to use in assay buffer.
The purpose of this in vitro assay was to measure the inhibition of HCV NS3 protease complexes, derived from the BMS strain, H77 strain or J4L6S strain, as described above, by compounds of the present disclosure. This assay provides an indication of how effective compounds of the present disclosure would be in inhibiting HCV NS3 proteolytic activity.
In order to monitor HCV NS3/4A protease activity, an NS3/4A peptide substrate was used. The substrate was RET S1 (Resonance Energy Transfer Depsipeptide Substrate; AnaSpec, Inc. cat #22991) (FRET peptide), described by Taliani et al. in Anal. Biochem. 240(2):60-67 (1996). The sequence of this peptide is loosely based on the NS4A/NS4B natural cleavage site for the HCV NS3 protease except there is an ester linkage rather than an amide bond at the cleavage site. The peptide also contains a fluorescence donor, EDANS, near one end of the peptide and an acceptor, DABCYL, near the other end. The fluorescence of the peptide is quenched by […] resonance energy transfer (RET) between the donor and the acceptor, but as the NS3 protease cleaves the peptide the products are released from RET quenching and the fluorescence of the donor becomes apparent.
The peptide substrate was incubated with one of the three recombinant NS3/4A protease complexes, in the absence or presence of a compound of the present disclosure. The inhibitory effects of a compound were determined by monitoring the formation of fluorescent reaction product in real time using a Cytofluor Series 4000.
Assay buffer: 50 mM HEPES, pH 7.5; 0.15M NaCl; 0.1% Triton; 15% Glycerol; 10 mM βME. Substrate: 2 μM final concentration (from a 2 mM stock solution in DMSO stored at −20° C.). HCV NS3/4A protease type 1a (1b), 2-3 nM final concentration (from a 5 μM stock solution in 25 mM HEPES, pH 7.5, 20% glycerol, 300 mM NaCl, 0.2% Triton-X100, 10 mM βME). […]

[2] = test system: HCV replicon in HUH-7 cells; assay: HCV replicon FRET assay; format: cell-based, HCV strain 1b; conditions: Hepatitis C virus, Huh-7; HCV replicon cell assay; read-out: Activity Range (EC50)
Source text: An HCV replicon whole cell system was established as described by Lohmann V, Korner F, Koch J, Herian U, Theilmann L, Bartenschlager R., Science 285(5424):110-3 (1999). This system enabled us to evaluate the effects of our HCV Protease compounds on HCV RNA replication. Briefly, using the HCV strain 1b sequence described in the Lohmann paper (Assession number: AJ238799), an HCV cDNA was synthesized by Operon Technologies, Inc. (Alameda, Calif.), and the full-length replicon was then assembled in plasmid pGem9zf(+) (Promega, Madison, Wis.) using standard molecular biology techniques. The replicon consists of (i) the HCV 5′ UTR fused to the first 12 amino acids of the capsid protein, (ii) the neomycin phosphotransferase gene (neo), (iii) the IRES from encephalomyocarditis virus (EMCV), and (iv) HCV NS3 to NS5B genes and the HCV 3′ UTR. Plasmid DNAs were linearized with ScaI and RNA transcripts were synthesized in vitro using the T7 MegaScript transcription kit (Ambion, Austin, Tex.) according to manufacturer's directions. In vitro transcripts of the cDNA were transfected into the human hepatoma cell line, HUH-7. […] Resulting cell lines were characterized for positive and negative strand RNA production and protein production over time.
The HCV replicon FRET assay was developed to monitor the inhibitory effects of compounds described in the disclosure on HCV viral replication. HUH-7 cells, constitutively expressing the HCV replicon, were grown in Dulbecco's Modified Eagle Media (DMEM) (Gibco-BRL) containing 10% Fetal calf serum (FCS) (Sigma) and 1 mg/ml G418 (Gibco-BRL). Cells were seeded the night before (1.5×10^4 cells/well) in 96-well tissue-culture sterile plates. Compound and no compound controls were prepared in DMEM containing 4% FCS, 1:100 Penicillin/Streptomysin (Gibco-BRL), 1:100 L-glutamine and 5% DMSO in the dilution plate (0.5% DMSO final concentration in the assay). Compound/DMSO mixes were added to the cells and incubated for 4 days at 37° C. After 4 days, cells were first assessed for cytotoxicity using alamar Blue (Trek Diagnotstic Systems) for a CC50 reading. The toxicity of compound (CC50) was determined by adding 1/10th volume of alamar Blue to the media incubating the cells. After 4 h, the fluorescence signal from each well was read, with an excitation wavelength at 530 nm and an emission wavelength of 580 nm, using the Cytofluor Series 4000 (Perspective Biosystems). Plates were then rinsed thoroughly with Phosphate-Buffered Saline (PBS) (3 times 150 μl). The cells were lysed with 25 μl of a lysis assay reagent containing an HCV protease substrate (5× cell Luciferase cell culture lysis reagent (Promega #E153A) diluted to 1× with distilled water, NaCl added to 150 mM final, the FRET peptide substrate (as described for the enzyme assay above) diluted to 10 μM final from a 2 mM stock in 100% DMSO. […]. The plate was then placed into the Cytofluor 4000 instrument which had been set to 340 nm excitation/490 nm emission, automatic mode for 21 cycles and the plate read in a kinetic mode. EC50 determinations were carried out as described for the IC50 determinations.

Row | Structure (SMILES) | pIC50 [1] | pEC50 [2]
1 | C=C[C@@H]1C[C@]1(NC(=O)[C@@H]1C[C@@H](c2ccccc2)CN1C(=O)[C@@H](NC(=O)OC(C)(C)C)C(C)(C)C)C(=O)NS(=O)(=O)C1CC1 [Compound 1] | 6.00 to 7.00 | 5.00 to 6.00
2 | C=C[C@@H]1C[C@]1(NC(=O)[C@@H]1C[C@@H](Cc2ccccc2)CN1C(=O)[C@@H](NC(=O)OC(C)(C)C)C(C)(C)C)C(=O)NS(=O)(=O)C1CC1 [Compound 2] | < 6.00 | < 5.00
3 | C=C[C@@H]1C[C@]1(NC(=O)[C@@H]1C[C@@](O)(c2ccccc2)CN1C(=O)[C@@H](NC(=O)OC(C)(C)C)C(C)(C)C)C(=O)NS(=O)(=O)C1CC1 [Compound 4] | 6.00 to 7.00 | 5.00 to 6.00
4 | C=C[C@@H]1C[C@]1(NC(=O)[C@@H]1C[C@@](O)(c2ccc3ccccc3c2)CN1C(=O)[C@@H](NC(=O)OC(C)(C)C)C(C)(C)C)C(=O)NS(=O)(=O)C1CC1 [Compound 5] | 7.00 to 9.00 | 6.00 to 8.00
5 | C=C[C@@H]1C[C@]1(NC(=O)[C@@H]1C[C@@](O)(c2ccc(F)cc2)CN1C(=O)[C@@H](NC(=O)OC(C)(C)C)C(C)(C)C)C(=O)NS(=O)(=O)C1CC1 [Compound 6] | 6.00 to 7.00 | 5.00 to 6.00
6 | C=C[C@@H]1C[C@]1(NC(=O)[C@@H]1C[C@@](O)(c2ccc(OC)cc2)CN1C(=O)[C@@H](NC(=O)OC(C)(C)C)C(C)(C)C)C(=O)NS(=O)(=O)C1CC1 [Compound 7] | 6.00 to 7.00 | 5.00 to 6.00
7 | C=C[C@@H]1C[C@]1(NC(=O)[C@@H]1C[C@@](O)(c2cccc(-c3ccc(OC)cc3)c2)CN1C(=O)[C@@H](NC(=O)OC(C)(C)C)C(C)(C)C)C(=O)NS(=O)(=O)C1CC1 [Compound 8] | 6.00 to 7.00 | 5.00 to 6.00
8 | C=CC[C@]1(O)C[C@@H](C(=O)N[C@]2(C(=O)NS(=O)(=O)C3CC3)C[C@H]2C=C)N(C(=O)[C@@H](NC(=O)OC(C)(C)C)C(C)(C)C)C1 [Compound 9] | < 6.00 | < 5.00
9 | C=C[C@@H]1C[C@]1(NC(=O)[C@@H]1C[C@@](O)(c2cccc(F)c2)CN1C(=O)[C@@H](NC(=O)OC(C)(C)C)C(C)(C)C)C(=O)NS(=O)(=O)C1CC1 [Compound 10] | 7.00 to 9.00 | 5.00 to 6.00
10 | C=C[C@@H]1C[C@]1(NC(=O)[C@@H]1C[C@@](O)(c2cccc(OC)c2)CN1C(=O)[C@@H](NC(=O)OC(C)(C)C)C(C)(C)C)C(=O)NS(=O)(=O)C1CC1 [Compound 11] | 7.00 to 9.00 | 5.00 to 6.00
11 | C=C[C@@H]1C[C@]1(NC(=O)[C@@H]1C[C@@](O)(c2cccc(Cl)c2)CN1C(=O)[C@@H](NC(=O)OC(C)(C)C)C(C)(C)C)C(=O)NS(=O)(=O)C1CC1 [Compound 12] | 7.00 to 9.00 | 5.00 to 6.00
12 | C=C[C@@H]1C[C@]1(NC(=O)[C@@H]1C[C@@](O)(c2cccc(C)c2)CN1C(=O)[C@@H](NC(=O)OC(C)(C)C)C(C)(C)C)C(=O)NS(=O)(=O)C1CC1 [Compound 13] | 7.00 to 9.00 | 5.00 to 6.00
13 | C=C[C@@H]1C[C@]1(NC(=O)[C@@H]1C[C@@](O)(c2cccc(C(C)C)c2)CN1C(=O)[C@@H](NC(=O)OC(C)(C)C)C(C)(C)C)C(=O)NS(=O)(=O)C1CC1 [Compound 14] | 6.00 to 7.00 | 5.00 to 6.00
14 | C=C[C@@H]1C[C@]1(NC(=O)[C@@H]1C[C@@](O)(c2cccc(OC(C)C)c2)CN1C(=O)[C@@H](NC(=O)OC(C)(C)C)C(C)(C)C)C(=O)NS(=O)(=O)C1CC1 [Compound 15] | 6.00 to 7.00 | 5.00 to 6.00
15 | C=C[C@@H]1C[C@]1(NC(=O)[C@@H]1C[C@@](O)(c2cccc(N(C)C)c2)CN1C(=O)[C@@H](NC(=O)OC(C)(C)C)C(C)(C)C)C(=O)NS(=O)(=O)C1CC1 [Compound 16] | 6.00 to 7.00 | < 5.00
16 | C=C[C@@H]1C[C@]1(NC(=O)[C@@H]1C[C@@](O)(c2cccc(CN3CCCC3)c2)CN1C(=O)[C@@H](NC(=O)OC(C)(C)C)C(C)(C)C)C(=O)NS(=O)(=O)C1CC1 [Compound 17] | 6.00 to 7.00 | < 5.00
17 | C=C[C@@H]1C[C@]1(NC(=O)[C@@H]1C[C@@](O)(c2cccc(CN3CCCCC3)c2)CN1C(=O)[C@@H](NC(=O)OC(C)(C)C)C(C)(C)C)C(=O)NS(=O)(=O)C1CC1 [Compound 18] | 6.00 to 7.00 | < 5.00
18 | C=C[C@@H]1C[C@]1(NC(=O)[C@@H]1C[C@@](O)(c2cccc(CN3CCOCC3)c2)CN1C(=O)[C@@H](NC(=O)OC(C)(C)C)C(C)(C)C)C(=O)NS(=O)(=O)C1CC1 [Compound 19] | 6.00 to 7.00 | < 5.00
19 | C=C[C@@H]1C[C@]1(NC(=O)[C@@H]1C[C@@](O)(c2ccccc2CN2CCOCC2)CN1C(=O)[C@@H](NC(=O)OC(C)(C)C)C(C)(C)C)C(=O)NS(=O)(=O)C1CC1 [Compound 20] | 6.00 to 7.00 | 5.00 to 6.00
20 | C=C[C@@H]1C[C@]1(NC(=O)[C@@H]1C[C@@](O)(c2cc(C)cc(C)c2)CN1C(=O)[C@@H](NC(=O)OC(C)(C)C)C(C)(C)C)C(=O)NS(=O)(=O)C1CC1 [Compound 21] | 7.00 to 9.00 | 5.00 to 6.00
